Measurements published in patent US20250090505A1, “Methods for Preventing Ectopic Brain Mineralization in Alzheimer's Disease and Dementias” (Tzerma LLC, priority 2022, published 2025).

Legend:
[1] = test system: in vitro biomineralization reaction; assay: Titration of the elements that trigger the in vitro biomineralization reaction; type: cell-based; conditions: titration assays, calcium, αGP and TNAP concomitantly present
Protocol: It is determined herein that the biomineralization reaction is dose-dependent on calcium, alpha-glycerophosphate and alkaline phosphatase. It is known that the physiological concentration of alkaline phosphatase in the brain is 1-2 international units per liter (IU/L), which is substantially lower than alkaline phosphatase in peripheral blood serum (44 to 147 IU/L)) (35, 36). […] The minimum dose of calcium, αGP, and TNAP that promptly triggers in vitro biomineralization reaction is 0.45 mM, 1.0 mM, and 100 IU/L, respectively (22).
To measure the physiological glycerophosphate, a method to quantify this organic compound in peripheral blood serum was invented The method of quantifying alpha-glycerophosphate is disclosed in international publication WO 2021/076851, the entirety of which is hereby incorporated by reference. […] The physiological concentration of alpha-glycerophosphate varied substantially amid adult individuals with a mean value of 2.90 mM and standard deviation of 1.98 (median=2.42 mM, max=9.60 mM, and min=0.15 mM). The wide range of alpha-glycerophosphate in blood is likely attributed to personal diet, e.g., a fatty diet and gut microbiome, and physical activity because alpha-glycerophosphate is a metabolite derived from fat to energize mitochondria (37). Overall, 83% of tested samples contained alpha-glycerophosphate greater than 1.0 mM, which is sufficient to trigger biomineralization when calcium and alkaline phosphatase are concomitantly present.

HCN-2 cells = assay: Inhibition of biomineralization (hydroxyapatite production) by HCN-2 cells, Alizarin Red staining; type: cell-based, human; conditions: for effect on alkaline phosphatase and alpha-glycerophosphate triggered biomineralization / hydroxyapatite production by HCN-2 cells, each compound alone: FIGS. 5A-5B
[2] = references 30-31; cited from earlier work

Row | Molecule | minimum dose that promptly triggers in vitro biomineralization reaction [1] | effect on alkaline phosphatase and alpha-glycerophosphate triggered biomineralization (HCN-2 cells) | hydroxyapatite production by HCN-2 cells, each compound alone (HCN-2 cells; in vitro) | crossing of the blood-brain barrier [2] | further results
1 | O=P(O)(O)OCC(O)CO (stereo not drawn) [αGP, alpha-glycerophosphate] | 1.0 mM | – | – | – | minimum dose that promptly triggers in vitro biomineralization reaction ([1]; listed as alpha-glycerophosphate): ≥ 1.0 mM
2 | [Ca+2] [calcium] | 0.45 mM | – | – | – | –
3 | O=C(O)P(=O)(O)O [Foscarnet, phosphonoformic acid] | – | inhibitory effects | entirely cease | cross the blood-brain barrier | concentration of Foscarnet that can competitively inhibit biomineralization (HCN-2 cells; in vitro, HCN-2 cells, MEMα/10% FBS with αGP and TNAP, 7 days, Alizarin Red (FIGS. 5A-5B)): at least 0.02 mM
4 | Cl.c1ccc([C@H]2CN3CCSC3=N2)cc1 [Levamisole, (−)-(s)-2,3,5,6-tetrahydro-6-phenylimidazo(2,1-b)thiazole mono hydrochloride] | – | inhibitory effects | entirely cease | cross the blood-brain barrier | concentration of Levamisole at which biomineralization is inhibited (HCN-2 cells; HCN-2 cells, alpha-glycerophosphate 2 mM, recombinant human TNAP 1,000 U/L): 1 mM
5 | TNAP: human tissue nonspecific alkaline phosphatase, element that triggers biomineralization (protein, UniProt P05186 18-501, looked up) Alkaline phosphatase, …: LVPEKEKDPKYWRDQAQETLKYALELQKLNTNVAKNVIMFLGDGMGVSTVTAARILKGQLHHNPGEETRLEMDKFPFVALSKTYNTNAQVPDSAGTATAYLCGVKANEGTVGVSAATERSRCNTTQGNEVTSILRWAKDAGKSVGIVTTTRVNHATPSAAYAHSADRDWYSDNEMPPEALSQGCKDIAYQLMHNIRDIDVIMGGGRKYMYPKNKTDVEYESDEKARGTRLDGLDLVDTWKSFKPRYKHSHFIWNRTELLTLDPHNVDYLLGLFEPGDMQYELNRNNVTDPSLSEMVVVAIQILRKNPKGFFLLVEGGRIDHGHHEGKAKQALHEAVEMDRAIGQAGSLTSSEDTLTVVTADHSHVFTFGGYTPRGNSIFGLAPMLSDTDKKPFTAILYGNGPGYKVVGGERENVSMVDYAHNNYQAQSAVPLRHETHGGEDVAVFSKGPMAHLLHGVHEQNYVPHVMAYAACIGANLGHCAPAS | 100 IU/L | – | – | – | –
